Test results: patent EP1099690A1, “MONOCYCLIC $g(b)-LACTAM COMPOUNDS AND CHYMASE INHIBITORS CONTAINING THE SAME” (SHIONOGI & CO., LTD., priority 1998, dated 2000)

The molecules below were run against T1, human chymase (Homo sapiens, UniProt P23946) (assay: Chymase inhibitory activity (Suc-Ala-Ala-Pro-Phe-pNA substrate, absorption 405 nm)). Details: purified human chymase, 30 minutes at 37 °C preincubation, substrate 0.5 mM.
T1 sequence (P23946 22-247): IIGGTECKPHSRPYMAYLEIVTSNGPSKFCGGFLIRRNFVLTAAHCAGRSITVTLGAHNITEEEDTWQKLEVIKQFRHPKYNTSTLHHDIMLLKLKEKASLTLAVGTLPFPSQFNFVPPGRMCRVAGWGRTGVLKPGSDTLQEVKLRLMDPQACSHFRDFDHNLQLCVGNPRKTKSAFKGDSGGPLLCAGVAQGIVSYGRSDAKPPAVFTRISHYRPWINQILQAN
Format: biochemical
Procedure: Compound (I) was dissolved in dimethylsulfoxide (DMSO) at 10^-2 M. Concentration of DMSO for activity measurement was 1 %.
Compound (I) dissolved in DMSO and purified human chymase (Takai et al., Clinica Chimica Acta 265, 1997, 13-20) were added to a buffer (0.1M Tris-HCl, 1.8M NaCl pH8.0). After the mixture was treated for 30 minutes at 37 °C, Suc-Ala-Ala-Pro-Phe-pNA (BACHEM Feinchemikalien AG) was added at 0.5 mM as a substrate and the mixture was enzymatically reacted at 37 °C.
After the reaction, the absorption intensity (405 nm) of the solution was measured to calculate the inhibitory rate.

Row | IC50 [nM] | Compound
1 | 0.29 | CCCC(NC(=O)N1C(=O)[C@@H](Cc2ccccc2OC)[C@@H]1Oc1ccc(C(=O)N2CCC(N3CCCCC3)CC2)cc1)c1ccc2c(c1)OCO2 (some centres unmarked) [Compound I-121]
2 | 2.4 | C[C@@H](NC(=O)N1C(=O)[C@@H](Cc2ccccc2)[C@H]1Sc1ccccc1)c1ccccc1 [Compound I-85]
3 | 5.2 | C[C@@H](NC(=O)N1C(=O)[C@@H](Cc2ccccc2)[C@@H]1Oc1ccc(/C=C/C(=O)O)cc1)c1ccccc1 [Compound I-52]
4 | 0.68 | C[C@@H](NC(=O)N1C(=O)[C@@H](Cc2ccccc2)[C@H]1Oc1ccc(C(=O)NCc2ccccc2F)cc1)c1ccccc1 [Compound I-68]
5 | 0.25 | COc1ccccc1C[C@@H]1C(=O)N(C(=O)N[C@@H](C)c2ccccc2)[C@@H]1Oc1ccc(C(=O)N2CCN(C)CC2)cc1 [Compound I-132]
6 | 1.02 | COc1ccccc1C[C@@H]1C(=O)N(C(=O)N[C@H](C)c2ccccc2)[C@@H]1Oc1ccc(C(=O)N2CCN(C)CC2)cc1 [Compound I-129]
7 | 1.08 | C[C@@H](NC(=O)N1C(=O)[C@@H](Cc2ccccc2)[C@@H]1Oc1ccc(C(=O)N2CCOCC2)cc1)c1ccccc1 [Compound I-43]
8 | 18 | CCCc1ccccc1C[C@@H]1C(=O)N(C(=O)NC(c2ccccc2)c2ccccc2)[C@H]1Oc1ccc(C(=O)O)cc1 [Compound I-161]
9 | 2.5 | CCOc1ccccc1C[C@@H]1C(=O)N(C(=O)NC(c2ccccc2)c2ccccc2)[C@H]1Oc1ccc(CC(=O)O)cc1 [Compound I-154]
10 | 4.6 | CCOc1ccccc1C[C@@H]1C(=O)N(C(=O)NC(c2ccccc2)c2ccccc2)[C@H]1Oc1ccc(C(=O)NS(=O)(=O)c2ccccc2)cc1 [Compound I-151]
11 | 190 | CCC1(Cc2ccccc2)C(=O)N(C(=O)NC(C)c2ccccc2)C1Oc1ccc(C(=O)N2CCN(C)CC2)cc1 (centres unmarked) [Compound I-173]
12 | 16.2 | C[C@@H](NC(=O)N1C(=O)[C@@H](Cc2ccccc2)[C@H]1Oc1ccc(C(=O)OCc2ccccc2)cc1)c1ccccc1 [Compound I-69]
13 | 15 | CCOc1ccccc1C[C@@H]1C(=O)N(C(=O)NC(c2ccc(OC)cc2)c2ccc(OC)cc2)[C@H]1Oc1ccc(C(=O)O)cc1 [Compound I-160]
14 | 0.19 | COc1ccccc1C[C@@H]1C(=O)N(C(=O)N[C@H](C)c2ccccc2)[C@H]1Oc1ccc(C(=O)N2CCN(C)CC2)cc1 [Compound I-104]
15 | 0.18 | C[C@@H](NC(=O)N1C(=O)[C@@H](Cc2ccccc2)[C@H]1Oc1ccc(C(=O)N2CCOCC2)cc1)c1ccccc1 [Compound I-67]
16 | 18.5 | C[C@H](NC(=O)N1C(=O)[C@H](Cc2ccccc2)[C@H]1Oc1ccc(C(=O)N2CCN(C)CC2)cc1)c1ccccc1 [Compound I-89]
17 | 115 | CCC1(Cc2ccccc2)C(=O)N(C(=O)NC(C)c2ccccc2)C1Oc1ccc(C(=O)O)cc1 (centres unmarked) [Compound I-172]
18 | 13 | C[C@H](NC(=O)N1C(=O)[C@@H](Cc2ccccc2)[C@H]1Oc1ccc(C(=O)N2CCN(C)CC2)cc1)c1ccccc1 [Compound I-81]
19 | 0.1 | COc1ccccc1C[C@@H]1C(=O)N(C(=O)N[C@@H](C)c2ccccc2)[C@@H]1Oc1ccc(C(=O)N2CCN(C)CC2)cc1 [Compound I-134]
20 | 0.68 | COc1ccccc1C[C@@H]1C(=O)N(C(=O)N[C@H](C)c2ccccc2)[C@H]1Oc1ccc(C(=O)N2CCN(c3ncccn3)CC2)cc1 [Compound I-107]
21 | 18 | CC[C@H](NC(=O)N1C(=O)[C@@H](Cc2ccccc2OC)[C@@H]1Oc1ccc(C(=O)O)cc1)c1ccccc1 [Compound I-115]
22 | 0.5 | CC[C@@H](NC(=O)N1C(=O)[C@@H](Cc2ccccc2OC)[C@@H]1Oc1ccc(C(=O)O)cc1)c1ccccc1 [Compound I-113]
23 | 4.1 | CCOc1ccccc1C[C@@H]1C(=O)N(C(=O)NC(c2ccccc2)c2ccccc2)[C@H]1Oc1ccc(C(=O)O)c(C(=O)O)c1 [Compound I-152]
24 | 2.8 | COc1ccccc1C[C@@H]1C(=O)N(C(=O)N[C@H](C)c2ccccc2)[C@H]1Oc1ccc(C(=O)OCc2ccncc2)cc1 [Compound I-105]
25 | 2.95 | COc1ccccc1C[C@@H]1C(=O)N(C(=O)NC(c2ccccc2)c2ccccc2)[C@H]1Oc1ccc(C(=O)O)cc1 [Compound I-126]
26 | 30 | C[C@@H](NC(=O)N1C(=O)[C@@H](Cc2ccccc2)[C@@H]1Oc1ccc(CC(=O)OCCN(C)C)cc1)c1ccccc1 [Compound I-51]
27 | 2.4 | C[C@@H](NC(=O)N1C(=O)[C@@H](Cc2ccccc2)[C@H]1Oc1ccc(C(=O)N2CCN(Cc3ccc4c(c3)OCO4)CC2)cc1)c1ccccc1 [Compound I-76]
28 | 17 | C[C@@H](NC(=O)N1C(=O)[C@@H](Cc2ccccc2)[C@@H]1Oc1cccc(C(=O)O)c1)c1ccccc1 [Compound I-55]

Row | IC50 [nM] | Compound
29 | 19 | COc1ccccc1C[C@@H]1C(=O)N(C(=O)NC2(c3ccccc3)CC2)[C@H]1Oc1ccc(C(=O)O)cc1 [Compound I-125]
30 | 0.48 | COc1ccccc1C[C@@H]1C(=O)N(C(=O)N[C@H](C)c2ccccc2)[C@H]1Oc1ccc(C(=O)N2CCN(C3CCCCC3)CC2)cc1 [Compound I-108]
31 | 3.4 | CCOc1ccccc1C[C@@H]1C(=O)N(C(=O)N[C@H](CC)c2ccccc2)[C@H]1Oc1ccc(C(=O)N2CCN(C3CCCCC3)CC2)cc1 [Compound I-137]
32 | 3 | C[C@@H](NC(=O)N1C(=O)[C@@H](Cc2ccccc2)[C@@H]1Oc1ccc(C(=O)OCCN(C)C)cc1)c1ccccc1 [Compound I-47]
33 | 0.55 | CCOc1ccccc1C[C@@H]1C(=O)N(C(=O)NC(c2ccccc2)c2ccccc2)[C@H]1Oc1ccc(C(=O)N2CCOCC2)cc1 [Compound I-148]
34 | 16 | CC(NC(=O)N1C(=O)[C@@H](Cc2ccccc2)[C@@H]1Oc1ccc(C(N)=O)cc1)c1ccccc1 (some centres unmarked) [Compound I-95]
35 | 1.2 | C[C@@H](NC(=O)N1C(=O)[C@@H](Cc2ccccc2)[C@H]1Oc1ccc(C(=O)OCc2ccncc2)cc1)c1ccccc1 [Compound I-75]
36 | 0.92 | C[C@@H](NC(=O)N1C(=O)[C@@H](Cc2ccccc2)[C@H]1Oc1ccc(C(=O)NNc2ccccc2)cc1)c1ccccc1 [Compound I-73]
37 | 2.1 | CCOc1ccccc1C[C@@H]1C(=O)N(C(=O)N[C@H](CC)c2ccccc2)[C@H]1Oc1ccc(C(=O)O)cc1 [Compound I-135]
38 | 1.28 | CCN(Cc1ccccc1)C(=O)c1ccc(O[C@@H]2[C@H](Cc3ccccc3)C(=O)N2C(=O)N[C@H](C)c2ccccc2)cc1 [Compound I-70]
39 | 1.9 | C[C@@H](NC(=O)N1C(=O)[C@@H](Cc2ccccc2)[C@@H]1Oc1ccc(C(=O)N2CCC[C@@H]2C)cc1)c1ccccc1 [Compound I-41]
40 | 31 | C[C@@H](NC(=O)N1C(=O)[C@@H](Cc2ccccc2)[C@@H]1Oc1ccc(C(=O)Nc2ccccc2)cc1)c1ccccc1 [Compound I-46]
41 | 3.5 | C[C@@H](NC(=O)N1C(=O)[C@@H](Cc2ccccc2)[C@@H]1Oc1ccc(/C=C/C(=O)N2CCN(C)CC2)cc1)c1ccccc1 [Compound I-54]
42 | 4.3 | C[C@@H](NC(=O)N1C(=O)[C@@H](Cc2ccccc2)[C@@H]1Oc1ccc(CC(=O)O)cc1)c1ccccc1 [Compound I-49]
43 | 5.4 | CCOc1ccccc1C[C@@H]1C(=O)N(C(=O)NC(c2ccccc2)c2ccccc2)[C@H]1Oc1ccc(C(=O)OCCN2CCOCC2)cc1 [Compound I-150]
44 | 8.6 | C[C@@H](NC(=O)N1C(=O)[C@@H](Cc2ccccc2)[C@H]1Oc1ccc(C(=O)N[C@@H](Cc2ccccc2)C(=O)OCc2ccccc2)cc1)c1ccccc1 [Compound I-74]
45 | 0.8 | C[C@@H](NC(=O)N1C(=O)[C@H](Cc2ccccc2)[C@H]1Oc1ccc(C(=O)N2CCN(C)CC2)cc1)c1ccccc1 [Compound I-87]
46 | 10.8 | CCOc1ccccc1C[C@@H]1C(=O)N(C(=O)NC(c2ccccc2)c2ccccc2)[C@H]1Oc1ccc(C(=O)N2CCN(C3CCCCC3)CC2)cc1 [Compound I-145]
47 | 0.26 | C[C@@H](NC(=O)N1C(=O)[C@@H](Cc2ccccc2)[C@H]1Oc1ccc(C(=O)N[C@@H](Cc2ccccc2)C(=O)O)cc1)c1ccccc1 [Compound I-77]
48 | 1 | COc1ccccc1C[C@@H]1C(=O)N(C(=O)N[C@H](C)c2ccccc2)[C@H]1Oc1ccc(C(=O)O)cc1 [Compound I-102]
49 | 3.8 | C=CCNC(=O)c1ccc(O[C@H]2[C@H](Cc3ccccc3)C(=O)N2C(=O)N[C@H](C)c2ccccc2)cc1 [Compound I-44]
50 | 20 | C[C@@H](NC(=O)N1C(=O)[C@@H](Cc2ccccc2)[C@@H]1Oc1ccc(C(=O)NCc2ccccc2)cc1)c1ccccc1 [Compound I-45]
51 | 3.8 | CCOc1ccccc1C[C@@H]1C(=O)N(C(=O)NC(c2ccccc2)c2ccccc2)[C@H]1Oc1ccc(/C=C/C(=O)O)cc1 [Compound I-155]
52 | 2.2 | C[C@@H](NC(=O)N1C(=O)[C@@H](Cc2ccccc2)[C@@H]1Oc1ccc(C(=O)N(C)CCN(C)C)cc1)c1ccccc1 [Compound I-38]
53 | 4.2 | CC(=O)O[C@H]1[C@H](Cc2ccccc2)C(=O)N1C(=O)NC(C)c1ccccc1 (some centres unmarked) [Compound I-36]
54 | 11 | COc1ccccc1C[C@@H]1C(=O)N(C(=O)N[C@@H](C)c2ccccc2)[C@H]1Oc1ccc(C(=O)N2CCN(C)CC2)cc1 [Compound I-111]
55 | 14.5 | CCOc1ccccc1C[C@@H]1C(=O)N(C(=O)NC(c2ccc(F)cc2)c2ccc(F)cc2)[C@H]1Oc1ccc(C(=O)O)cc1 [Compound I-159]

Row | Compound | IC50 [nM]
56 | C[C@@H](NC(=O)N1C(=O)[C@@H](Cc2ccccc2)[C@@H]1Oc1ccc(CC(=O)N2CCN(C)CC2)cc1)c1ccccc1 [Compound I-50] | 1.13
